Results: ChEMBL document CHEMBL3045288, “Pharmacophore of neonicotinoid insecticides” (J Pestic Sci, 2008)

Tests used:
[1] = system: Spodoptera litura; assay: Insecticidal activity against Spodoptera litura at 500 ppm; assay type: functional
[2] = system: Aulacophora; assay: Insecticidal activity against Aulacophora femoralis (cucurbit leaf beetle) at 500 ppm; assay type: functional
[3] = system: Myzus persicae; assay: Insecticidal activity against Myzus persicae (green peach aphid) at 500 ppm; assay type: functional
[4] = system: Aulacophora; assay: Insecticidal activity against Aulacophora femoralis (cucurbit leaf beetle) at 100 ppm; assay type: functional
[5] = system: Periplaneta americana; assay: Insecticidal activity against Periplaneta americana (American cockroach) central nerve cord; assay type: functional
[6] = system: Periplaneta americana; assay: Neuroblocking potency in Periplaneta americana (American cockroach) central nerve cord; assay type: functional
[7] = system: Aulacophora; assay: Insecticidal activity against Aulacophora femoralis (cucurbit leaf beetle) at 20 ppm; assay type: functional
[8] = system: Myzus persicae; assay: Insecticidal activity against Myzus persicae (green peach aphid) at 100 ppm; assay type: functional
[9] = system: Spodoptera litura; assay: Insecticidal activity against Spodoptera litura at 100 ppm; assay type: functional
[10] = system: Spodoptera litura; assay: Insecticidal activity against Spodoptera litura at 20 ppm; assay type: functional
[11] = system: Myzus persicae; assay: Insecticidal activity against Myzus persicae (green peach aphid) at 20 ppm; assay type: functional
[12] = Lipophilicity, log P of the compound; assay type: physicochemical; conditions: octanol/water

Compound: O=[N+]([O-])/N=C1\NCCN1CCF
- Activity [1]: 0%
- Activity [2]: 0%
- Activity [3]: 60%

Compound: O=[N+]([O-])/N=C1\NCCN1CCC(F)(F)F
- Activity [1]: 30%
- Activity [2]: 100%
- Activity [4]: 50%
- Activity [3]: 0%

Compound: O=[N+]([O-])/N=C1/N(CCCCN2CCN(Cc3ccc(Cl)nc3)/C2=N/[N+](=O)[O-])CCN1Cc1ccc(Cl)nc1
- Activity [5]: 11 nmol

Compound: CN1CCN(Cc2ccc(Cl)nc2)/C1=N/[N+](=O)[O-]
- log(1/BC) [6]: 3.81

Compound: O=[N+]([O-])/N=c1\sccn1Cc1cnc(Cl)s1
- log(1/BC) [6]: 5.79

Compound: O=[N+]([O-])/C=C1\SCCN1Cc1ccc(Cl)nc1
- log(1/BC) [6]: 6.19

Compound: O=[N+]([O-])/N=C1/N(CCCCCCN2CCN(Cc3ccc(Cl)nc3)/C2=N/[N+](=O)[O-])CCN1Cc1ccc(Cl)nc1 [Hexamethylene 1,6-bis-imadacloprid]
- Activity [5]: 2.2 nmol

Compound: O=[N+]([O-])/C=C1\NCCN1Cc1ccc(Cl)nc1
- log(1/BC) [6]: 5.02

Compound: O=[N+]([O-])Nc1nccn1Cc1ccc(Cl)nc1 [DEHYDROIMIDACLOPRID]
- log(1/BC) [6]: 4.31

Compound: O=[N+]([O-])/N=c1\ccccn1Cc1cnc(Cl)s1
- log(1/BC) [6]: 5.75

Compound: O=[N+]([O-])/C=C1\CCCN1Cc1ccc(Cl)nc1
- log(1/BC) [6]: 6.43

Compound: O=[N+]([O-])/N=C1\NCCN1Cc1ccc(Cl)nc1 [IMIDACLOPRID]
- Activity [7]: 100%
- Activity [1]: 100%
- Activity [8]: 100%
- Activity [2]: 100%
- Activity [4]: 100%
- Activity [5]: 2.5 nmol
- log(1/BC) [6]: 5.64
- Activity [9]: 80%
- Activity [10]: 40%
- Activity [11]: 100%
- Activity [3]: 100%

Compound: O=[N+]([O-])/N=C1\NCCN1CCC(F)=C(F)F
- Activity [1]: 0%
- Activity [2]: 0%
- Activity [3]: 0%

Compound: O=[N+]([O-])/N=C1\NCCN1CCCF
- Activity [7]: 0%
- Activity [1]: 100%
- Activity [8]: 90%
- Activity [2]: 100%
- Activity [4]: 100%
- Activity [9]: 20%
- Activity [11]: 60%
- Activity [3]: 97%

Compound: O=[N+]([O-])/N=C1/N(CCCCCCCCCCN2CCN(Cc3ccc(Cl)nc3)/C2=N/[N+](=O)[O-])CCN1Cc1ccc(Cl)nc1
- Activity [5]: 3.7 nmol

Compound: O=[N+]([O-])/N=C1\NCCCN1Cc1ccc(Cl)nc1
- log(1/BC) [6]: 5.35

Compound: CCCN1CCN/C1=N\[N+](=O)[O-]
- Activity [1]: 0%
- Activity [2]: 0%
- Activity [3]: 60%

Compound: O=[N+]([O-])/N=C1\NCCN1CCCCF
- Activity [1]: 20%
- Activity [8]: 60%
- Activity [9]: 0%
- Activity [11]: 0%
- Activity [3]: 97%

Compound: O=[N+]([O-])/C=C1\CCCN1Cc1cnc(Cl)s1
- logP [12]: 0.64
- log(1/BC) [6]: 6

Compound: CN1CCN(Cc2ccc(Cl)nc2)/C1=C/[N+](=O)[O-]
- log(1/BC) [6]: 3.84

Compound: O=[N+]([O-])/C=C1\NCCN1Cc1cnc(Cl)s1
- log(1/BC) [6]: 5.73

Compound: O=[N+]([O-])/N=C1\N(CCCF)CCN1Cc1ccc(Cl)nc1
- Activity [7]: 100%
- Activity [1]: 0%
- Activity [8]: 100%
- Activity [4]: 100%
- Activity [11]: 100%

Compound: O=[N+]([O-])/N=C1\NCCN1CCCCl
- Activity [7]: 50%
- Activity [1]: 0%
- Activity [8]: 0%
- Activity [2]: 100%
- Activity [4]: 100%
- Activity [3]: 97%

Compound: O=[N+]([O-])/N=C1/N(CCCCCN2CCN(Cc3ccc(Cl)nc3)/C2=N/[N+](=O)[O-])CCN1Cc1ccc(Cl)nc1
- Activity [5]: 3.9 nmol

Compound: O=[N+]([O-])/N=c1\sccn1Cc1ccc(Cl)nc1
- log(1/BC) [6]: 5.68

Compound: O=[N+]([O-])/N=c1\ccccn1Cc1ccc(Cl)nc1
- log(1/BC) [6]: 5.09

Compound: O=[N+]([O-])/N=C1/N(CCCCCCCCN2CCN(Cc3ccc(Cl)nc3)/C2=N/[N+](=O)[O-])CCN1Cc1ccc(Cl)nc1
- Activity [5]: 4.5 nmol

Compound: O=[N+]([O-])/N=C1/N(CCCCCCCN2CCN(Cc3ccc(Cl)nc3)/C2=N/[N+](=O)[O-])CCN1Cc1ccc(Cl)nc1 [Heptamethylene 1,7-bis-imadacloprid]
- Activity [5]: 2.8 nmol

Compound: O=[N+]([O-])/N=C1\NCCN1Cc1cnc(Cl)s1 [IMIDACLOTHIZ]
- log(1/BC) [6]: 5.97

Compound: O=[N+]([O-])/N=c1\[nH]ccn1Cc1cnc(Cl)s1
- log(1/BC) [6]: 4.61

Compound: O=[N+]([O-])/N=C1/N(CCCCCCCCCN2CCN(Cc3ccc(Cl)nc3)/C2=N/[N+](=O)[O-])CCN1Cc1ccc(Cl)nc1
- Activity [5]: 2.8 nmol

Compound: O=[N+]([O-])/N=C1\SCCN1Cc1cnc(Cl)s1
- log(1/BC) [6]: 6.31

Compound: O=[N+]([O-])/N=C1\N(CCN2CCN(Cc3ccc(Cl)nc3)/C2=N\[N+](=O)[O-])CCN1Cc1ccc(Cl)nc1
- Activity [5]: 8.3 nmol

Compound: O=[N+]([O-])/N=C1/N(CCCN2CCN(Cc3ccc(Cl)nc3)/C2=N/[N+](=O)[O-])CCN1Cc1ccc(Cl)nc1
- Activity [5]: 4.9 nmol
